Results as given in patent US10973832B2, “Muscarinic M1 receptor agonists” (Heptares Therapeutics Limited, priority 2011, dated 2021).

Assays:
Type in all cases: cell-based
[1] = target: T1, human muscarinic M2 receptor (Homo sapiens, UniProt P08172); assay: Phospho-ERK1/2 assay, muscarinic M2; details: for EC50: CHO cells expressing human M2, phospho-ERK1/2 Alphascreen, read-out: pEC50 M2 (converted); for Emax: CHO, read-out: % Emax cf. ACh (M2)
T1 sequence (P08172 1-466): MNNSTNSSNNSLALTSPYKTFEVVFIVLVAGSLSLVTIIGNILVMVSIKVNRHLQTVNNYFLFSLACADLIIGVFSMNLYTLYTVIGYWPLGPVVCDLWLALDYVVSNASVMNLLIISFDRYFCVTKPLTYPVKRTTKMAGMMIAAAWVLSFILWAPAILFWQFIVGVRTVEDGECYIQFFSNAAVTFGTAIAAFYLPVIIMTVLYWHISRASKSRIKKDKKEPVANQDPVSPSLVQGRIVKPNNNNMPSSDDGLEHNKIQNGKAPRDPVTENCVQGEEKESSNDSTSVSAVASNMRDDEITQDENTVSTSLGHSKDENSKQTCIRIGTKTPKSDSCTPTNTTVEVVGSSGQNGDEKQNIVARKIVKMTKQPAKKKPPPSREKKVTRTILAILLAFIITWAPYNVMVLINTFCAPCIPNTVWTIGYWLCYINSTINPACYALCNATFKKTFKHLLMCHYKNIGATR
Experimental: (§1) Functional assays were performed using the Alphascreen Surefire phospho-ERK1/2 assay (Crouch & Osmond, Comb. Chem. High Throughput Screen, 2008). ERK1/2 phosphorylation is a downstream consequence of both Gq/11 and Gi/o protein coupled receptor activation, making it highly suitable for the assessment of M1, M3 (Gq/11 coupled) and M2, M4 receptors (Gi/o coupled), rather than using different assay formats for different receptor subtypes. CHO cells stably expressing the human muscarinic M1, M2, M3 or M4 receptor were plated (25K/well) onto 96-well tissue culture plates in MEM-alpha+10% dialysed FBS. Once adhered, cells were serum-starved overnight. Agonist stimulation was performed by the addition of 5 μL agonist to the cells for 5 min (37° C.). Media was removed and 50 μL of lysis buffer added. After 15 min, a 4 μL sample was transferred to 384-well plate and 7 μL of detection mixture added. Plates were incubated for 2 h with gentle agitation in the dark and then read on a PHERAstar plate reader.
(§2) pEC50 and Emax figures were calculated from the resulting data for each receptor subtype.

[2] = target: T2, human muscarinic M1 receptor (Homo sapiens, UniProt P11229); assay: Phospho-ERK1/2 assay, muscarinic M1; details: for EC50: CHO cells expressing human M1, phospho-ERK1/2 Alphascreen, read-out: pEC50 M1 (converted); for Emax: CHO, read-out: % Emax cf. ACh (M1)
T2 sequence (P11229 1-460): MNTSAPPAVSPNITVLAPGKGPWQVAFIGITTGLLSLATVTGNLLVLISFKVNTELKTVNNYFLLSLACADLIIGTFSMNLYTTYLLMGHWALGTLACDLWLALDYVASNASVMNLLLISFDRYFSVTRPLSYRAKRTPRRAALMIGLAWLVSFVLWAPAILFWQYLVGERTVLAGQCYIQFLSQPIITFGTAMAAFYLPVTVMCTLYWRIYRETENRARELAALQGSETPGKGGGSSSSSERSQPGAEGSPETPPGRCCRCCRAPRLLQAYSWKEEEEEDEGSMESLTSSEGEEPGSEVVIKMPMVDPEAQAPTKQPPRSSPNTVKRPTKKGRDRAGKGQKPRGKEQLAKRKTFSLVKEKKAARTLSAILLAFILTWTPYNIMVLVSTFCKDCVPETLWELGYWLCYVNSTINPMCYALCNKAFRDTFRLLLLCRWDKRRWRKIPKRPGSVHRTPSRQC
Experimental: as §1, §2

[3] = target: T3, human muscarinic M3 receptor (Homo sapiens, UniProt P20309); assay: Phospho-ERK1/2 assay, muscarinic M3; details: for EC50: phospho-ERK1/2 Alphascreen, read-out: pEC50 M3 (converted); for Emax: CHO, read-out: % Emax cf. ACh (M3)
T3 construct: expressed in transfected cells
T3 sequence (P20309 whole entry): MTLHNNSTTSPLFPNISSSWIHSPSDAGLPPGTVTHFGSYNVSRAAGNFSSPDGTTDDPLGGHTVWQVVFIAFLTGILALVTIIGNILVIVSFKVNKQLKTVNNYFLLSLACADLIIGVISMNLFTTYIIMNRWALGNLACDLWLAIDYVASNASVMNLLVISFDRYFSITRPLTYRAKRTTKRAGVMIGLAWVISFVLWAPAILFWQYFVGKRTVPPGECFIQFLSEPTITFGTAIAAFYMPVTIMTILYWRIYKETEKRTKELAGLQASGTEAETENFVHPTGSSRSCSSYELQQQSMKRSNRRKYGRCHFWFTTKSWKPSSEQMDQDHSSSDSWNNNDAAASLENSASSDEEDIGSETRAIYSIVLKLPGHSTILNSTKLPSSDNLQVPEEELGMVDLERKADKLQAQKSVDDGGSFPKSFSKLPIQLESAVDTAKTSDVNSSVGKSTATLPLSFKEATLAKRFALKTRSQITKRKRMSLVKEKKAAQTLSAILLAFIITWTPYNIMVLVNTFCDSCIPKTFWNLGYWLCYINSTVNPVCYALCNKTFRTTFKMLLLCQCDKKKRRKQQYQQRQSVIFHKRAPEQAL
Experimental: as §1, §2

[4] = target: T4, human muscarinic M4 receptor (Homo sapiens, UniProt P08173); assay: Phospho-ERK1/2 assay, muscarinic M4; details: for EC50: phospho-ERK1/2 Alphascreen, read-out: pEC50 M4 (converted); for Emax: CHO, read-out: % Emax cf. ACh (M4)
T4 construct: expressed in transfected cells
T4 sequence (P08173 1-479): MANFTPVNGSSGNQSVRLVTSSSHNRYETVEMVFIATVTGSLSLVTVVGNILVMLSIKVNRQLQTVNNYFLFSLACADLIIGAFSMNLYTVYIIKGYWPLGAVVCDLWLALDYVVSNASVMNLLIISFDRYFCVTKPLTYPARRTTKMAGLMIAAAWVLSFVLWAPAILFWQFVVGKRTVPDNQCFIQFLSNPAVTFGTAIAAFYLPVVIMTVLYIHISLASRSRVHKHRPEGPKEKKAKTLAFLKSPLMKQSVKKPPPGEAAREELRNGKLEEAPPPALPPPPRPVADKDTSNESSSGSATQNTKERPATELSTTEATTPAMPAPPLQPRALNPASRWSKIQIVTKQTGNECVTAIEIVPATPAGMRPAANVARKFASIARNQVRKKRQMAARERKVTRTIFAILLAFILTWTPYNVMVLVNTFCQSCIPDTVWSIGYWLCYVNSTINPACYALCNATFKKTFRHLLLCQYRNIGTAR
Experimental: as §1, §2

| Compound | EC50 [1] [nM] | Emax [1] [%] | EC50 [2] [nM] | Emax [2] [%] | EC50 ([3]; CHO cells expressing human M3) [nM] | Emax [3] [%] | EC50 ([4]; CHO cells expressing human M4) [nM] | Emax [4] [%] | % Emax cf. ACh (M3) ([3]; CHO cells expressing human M3, Emax relative to ACh) | % Emax cf. ACh (M4) ([4]; CHO cells expressing human M4, Emax relative to ACh) |
| --- | --- | --- | --- | --- | --- | --- | --- | --- | --- | --- |
| CCOC(=O)N1CCCC(N2CCC(C)(C(=O)NCC(C)C)CC2)CC1 (centres unmarked) [Example 56, ethyl 4-(4-methyl-4-((2-methylpropyl)carbamoyl)piperidin-1-yl)azepane-1-carboxylate] | > 20000 | 4 | 64.6 | 108 | > 20000 | 8 | 1350 | 46 |  |  |
| CCOC(=O)N1CCCC(N2CCC(C(=O)NCC3CC3)CC2)CC1 (centres unmarked) [Example 15, ethyl 4-(4-((cyclopropylmethyl)carbamoyl)piperidin-1-yl)azepane-1-carboxylate] | > 20000 | 5 | 112 | 107 | > 20000 | 12 | 550 | 67 |  |  |
| CCOC(=O)N1CCC[C@@H](N2CCC(C(=O)NC3(C)CCC3)CC2)CC1 [Example 66, ethyl (4R)-4-{4-[(1-methylcyclobutyl)carbamoyl]piperidin-1-yl}azepane-1-carboxylate] | > 20000 | 12 | 275 | 94 | > 20000 | 0 | 2450 | 66 |  |  |
| CCOC(=O)N1CCC[C@H](N2CCC(C(=O)NCC(C)C)CC2)CC1 [Example 63] | > 20000 | 5 | 69.2 | 107 | > 20000 | 5 | 646 | 89 |  |  |
| CCOC(=O)N1CCCC(N2CCC(F)(C(=O)NC3CCCC3)CC2)CC1 (centres unmarked) [Example 51, ethyl 4-(4-fluoro-4-((cyclopentyl)carbamoyl)piperidin-1-yl)azepane-1-carboxylate] | > 20000 | 12 | 51.3 | 107 | > 20000 | 6 | 708 | 93 |  |  |
| CCOC(=O)N1CCCC(N2CCC(C(=O)NCC3(C)CCCC3)CC2)CC1 (centres unmarked) [Example 18] | > 20000 | 7 | 83.2 | 101 | > 20000 | 4 | 589 | 39 |  |  |
| CCOC(=O)N1CCCC(N2CCC(F)(C(=O)NC(C)(C)C3CC3)CC2)CC1 (centres unmarked) [Example 54, ethyl 4-(4-fluoro-4-((2-cyclopropylpropan-2-yl)carbamoyl)piperidin-1-yl)azepane-1-carboxylate] | > 20000 | 15 | 49 | 124 | > 20000 | 6 | 229 | 114 |  |  |
| CCOC(=O)N1CCCC(N2CCC(C)(C(=O)NC3(C)CCC3)CC2)CC1 (centres unmarked) [Example 78, ethyl 4-{4-methyl-4-[(1-methylcyclobutyl)carbamoyl]piperidin-1-yl}azepane-1-carboxylate] | > 20000 | 5 | 42.7 | 115 | > 20000 | 0 | 417 | 51 |  |  |
| CCOC(=O)N1CCCC(N2CCC(C(=O)NCC3(CC)CCC3)CC2)CC1 (centres unmarked) [Example 37, ethyl 4-(4-(((1-ethylcyclobutyl)methyl)carbamoyl)piperidin-1-yl)azepane-1-carboxylate] | > 20000 | 8 | 13.8 | 87 | > 20000 | 10 | 191 | 75 |  |  |
| CCOC(=O)N1CCCC(N2CCC(C(=O)NC3CCCC3)CC2)CC1 (centres unmarked) [Example 30, ethyl 4-(4-(cyclopentylcarbamoyl)piperidin-1-yl)azepane-1-carboxylate] | > 20000 | 3 | 57.5 | 132 | > 20000 | 33 | 224 | 104 |  |  |
| CCOC(=O)N1CCCC(N2CCC(F)(C(=O)NC3(C)CCCC3)CC2)CC1 (centres unmarked) [Example 48, ethyl 4-(4-fluoro-4-((1-methylcyclopentyl)carbamoyl)piperidin-1-yl)azepane-1-carboxylate] | > 20000 | 12 | 61.7 | 88 | > 20000 | 12 | 537 | 73 |  |  |
| CCOC(=O)N1CCCC(N2CCC(C#N)(C(=O)NC3(C)CCC3)CC2)CC1 (centres unmarked) [Example 82, ethyl 4-{4-cyano-4-[(1-methylcyclobutyl)carbamoyl]piperidin-1-yl}azepane-1-carboxylate] | > 20000 | 16 | 55 | 89 | > 20000 | 2 | 1620 | 81 |  |  |
| CCOC(=O)N1CCC[C@H](N2CCC(C(=O)NC(C)(C)C)CC2)CC1 [Example 67, ethyl (4S)-4-[4-(tert-butylcarbamoyl)piperidin-1-yl]azepane-1-carboxylate] | > 20000 | 48 | 126 | 114 | > 20000 | 4 | 501 | 104 |  |  |
| CCOC(=O)N1CCCC(N2CCC(C(=O)NCC(C)C3CC3)CC2)CC1 (centres unmarked) [Example 39, ethyl 4-(4-((2-cyclopropylpropyl)carbamoyl)piperidin-1-yl)azepane-1-carboxylate] | > 20000 | 2 | 72.4 | 96 | > 20000 | 8 | > 20000 | 13 |  |  |
| CCOC(=O)N1CCC[C@@H](N2CCC(C(=O)NCC(C)C)CC2)CC1 [Example 64] | > 20000 | 5 | 107 | 104 | > 20000 | 9 | 3240 | 81 |  |  |
| CCOC(=O)N1CCCC(N2CCC(C(=O)NC3(C)CCCCC3)CC2)CC1 (centres unmarked) [Example 17, ethyl 4-(4-((1-methylcyclohexyl)carbamoyl)piperidin-1-yl)azepane-1-carboxylate] | > 20000 | 0 | 61.7 | 104 | > 20000 | 5 | 724 | 46 |  |  |
| CCOC(=O)N1CCC[C@@H](N2CCC(C(=O)NC(C)(C)C)CC2)CC1 [Example 68, ethyl (4R)-4-[4-(tert-butylcarbamoyl)piperidin-1-yl]azepane-1-carboxylate] |  |  | 813 | 94 |  |  | 3720 | 64 |  |  |
| CC(=O)OCC[N+](C)(C)C [ACh] |  |  |  |  |  |  |  |  | (112) % | (110) % |
